Laboratory results published in the supplement of paper PMC10733146.

Experiments:
Experiment in all cases: viability relative to DMSO control (fraction); higher = less drug effect (more viable cells)
Settings in all cases: 48 h
[1] = tested on: primary ALL patient cells (S048)
Method in brief: (§1)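 Compounds were pre-plated at five concentrations, one well each, in 384-well plates, and primary mononuclear tumour cells were plated on them at 4 × 10^4 cells per well. The cells, fresh or cryopreserved, had been Ficoll-isolated from blood or bone marrow or taken from processed lymph node. After 48 h at 37 °C and 5% CO2 in RPMI-1640 with penicillin/streptomycin, L-glutamine and human serum, viability was read as CellTiter-Glo luminescence relative to the median of 16 inner DMSO wells.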

[2] = tested on: primary ALL patient cells (S088)
Method in brief: as §1

[3] = tested on: primary AML patient cells (S011)
Method in brief: as §1

[4] = tested on: primary AML patient cells (S012)
Method in brief: as §1

[5] = tested on: primary AML patient cells (S017)
Method in brief: as §1

[6] = tested on: primary AML patient cells (S021)
Method in brief: as §1

[7] = tested on: primary AML patient cells (S056)
Method in brief: as §1

[8] = tested on: primary AML patient cells (S060)
Method in brief: as §1

[9] = tested on: primary AML patient cells (S081)
Method in brief: as §1

[10] = tested on: primary AML patient cells (S085)
Method in brief: as §1

[11] = tested on: primary B-PLL patient cells (S016)
Method in brief: as §1

[12] = tested on: primary BL patient cells (S005)
Method in brief: as §1

[13] = tested on: primary CLL patient cells (S031)
Method in brief: as §1

[14] = tested on: primary CLL patient cells (S043)
Method in brief: as §1

[15] = tested on: primary FL patient cells (S022)
Method in brief: as §1

[16] = tested on: primary FL patient cells (S087)
Method in brief: as §1

[17] = tested on: primary MCL patient cells (S053)
Method in brief: as §1

[18] = tested on: primary MCL patient cells (S063)
Method in brief: as §1

[19] = tested on: primary MCL patient cells (S068)
Method in brief: as §1

CN1CC[C@H](c2c(O)cc(O)c3c(=O)cc(-c4ccccc4Cl)oc23)[C@H](O)C1 [Flavopiridol]
viability ([1]; 0.0032 µM): 0.998 | viability ([1]; 0.016 µM): 1 | viability ([1]; 0.08 µM): 1.1 | viability ([1]; 0.4 µM): 0.535 | viability ([1]; 2 µM): 0.0207 | viability ([2]; 0.0032 µM): 0.955 | viability ([2]; 0.016 µM): 0.916 | viability ([2]; 0.08 µM): 1.08 | viability ([2]; 0.4 µM): 0.0921 | viability ([2]; 2 µM): 0.0295 | viability ([3]; 0.0032 µM): 0.859 | viability ([3]; 0.016 µM): 0.754 | viability ([3]; 0.08 µM): 0.715 | viability ([3]; 0.4 µM): 0.0633 | viability ([3]; 2 µM): 0.0225 | viability ([4]; 0.0032 µM): 0.979 | viability ([4]; 0.016 µM): 0.904 | viability ([4]; 0.08 µM): 0.869 | viability ([4]; 0.4 µM): 0.151 | viability ([4]; 2 µM): 0.0418 | viability ([5]; 0.0032 µM): 1 | viability ([5]; 0.016 µM): 0.986 | viability ([5]; 0.08 µM): 0.96 | viability ([5]; 0.4 µM): 0.18 | viability ([5]; 2 µM): 0.0397 | viability ([6]; 0.0032 µM): 0.974 | viability ([6]; 0.016 µM): 0.852 | viability ([6]; 0.08 µM): 0.676 | viability ([6]; 0.4 µM): 0.292 | viability ([6]; 2 µM): 0.124 | viability ([7]; 0.0032 µM): 0.928 | viability ([7]; 0.016 µM): 0.75 | viability ([7]; 0.08 µM): 0.367 | viability ([7]; 0.4 µM): 0.065 | viability ([7]; 2 µM): 0.0807 | viability ([8]; 0.0032 µM): 0.949 | viability ([8]; 0.016 µM): 0.937 | viability ([8]; 0.08 µM): 0.848 | viability ([8]; 0.4 µM): 0.127 | viability ([8]; 2 µM): 0.0228 | viability ([9]; 0.0032 µM): 1.01 | viability ([9]; 0.016 µM): 0.873 | viability ([9]; 0.08 µM): 0.766 | viability ([9]; 0.4 µM): 0.0954 | viability ([9]; 2 µM): 0.0215 | viability ([10]; 0.0032 µM): 0.86 | viability ([10]; 0.016 µM): 0.858 | viability ([10]; 0.08 µM): 0.651 | viability ([10]; 0.4 µM): 0.0968 | viability ([10]; 2 µM): 0.0387 | viability ([11]; 0.0032 µM): 0.932 | viability ([11]; 0.016 µM): 0.862 | viability ([11]; 0.08 µM): 0.959 | viability ([11]; 0.4 µM): 0.217 | viability ([11]; 2 µM): 0.0227 | viability ([12]; 0.0032 µM): 0.794 | viability ([12]; 0.016 µM): 1.26 | viability ([12]; 0.08 µM): 0.644 | viability ([12]; 0.4 µM): 0.534 | viability ([12]; 2 µM): 0.983 | viability ([13]; 0.0032 µM): 1.04 | viability ([13]; 0.016 µM): 0.914 | viability ([13]; 0.08 µM): 0.963 | viability ([13]; 0.4 µM): 0.0407 | viability ([13]; 2 µM): 0.0147 | viability ([14]; 0.0032 µM): 0.933 | viability ([14]; 0.016 µM): 1.02 | viability ([14]; 0.08 µM): 0.912 | viability ([14]; 0.4 µM): 0.265 | viability ([14]; 2 µM): 0.0335 | viability ([15]; 0.0032 µM): 1.04 | viability ([15]; 0.016 µM): 0.958 | viability ([15]; 0.08 µM): 0.995 | viability ([15]; 0.4 µM): 0.227 | viability ([15]; 2 µM): 0.187 | viability ([16]; 0.0032 µM): 0.967 | viability ([16]; 0.016 µM): 0.91 | viability ([16]; 0.08 µM): 1 | viability ([16]; 0.4 µM): 0.644 | viability ([16]; 2 µM): 0.638 | viability ([17]; 0.0032 µM): 1.02 | viability ([17]; 0.016 µM): 0.938 | viability ([17]; 0.08 µM): 0.951 | viability ([17]; 0.4 µM): 0.469 | viability ([17]; 2 µM): 0.627 | viability ([18]; 0.0032 µM): 0.987 | viability ([18]; 0.016 µM): 0.935 | viability ([18]; 0.08 µM): 0.887 | viability ([18]; 0.4 µM): 0.269 | viability ([18]; 2 µM): 0.0178 | viability ([19]; 0.0032 µM): 0.98 | viability ([19]; 0.016 µM): 0.982 | viability ([19]; 0.08 µM): 0.82 | viability ([19]; 0.4 µM): 0.0704 | viability ([19]; 2 µM): 0.0301

Cc1sc2c(c1C)C(c1ccc(Cl)cc1)=N[C@@H](CC(=O)Nc1ccc(O)cc1)c1nnc(C)n1-2 [OTX015]
viability ([1]; 0.016 µM): 1.1 | viability ([1]; 0.08 µM): 1.04 | viability ([1]; 0.4 µM): 0.552 | viability ([1]; 2 µM): 0.305 | viability ([1]; 10 µM): 0.241 | viability ([2]; 0.016 µM): 0.862 | viability ([2]; 0.08 µM): 0.726 | viability ([2]; 0.4 µM): 0.448 | viability ([2]; 2 µM): 0.394 | viability ([2]; 10 µM): 0.325 | viability ([3]; 0.016 µM): 1 | viability ([3]; 0.08 µM): 0.899 | viability ([3]; 0.4 µM): 0.766 | viability ([3]; 2 µM): 0.742 | viability ([3]; 10 µM): 0.758 | viability ([4]; 0.016 µM): 0.989 | viability ([4]; 0.08 µM): 0.84 | viability ([4]; 0.4 µM): 0.565 | viability ([4]; 2 µM): 0.379 | viability ([4]; 10 µM): 0.267 | viability ([5]; 0.016 µM): 0.96 | viability ([5]; 0.08 µM): 0.937 | viability ([5]; 0.4 µM): 0.573 | viability ([5]; 2 µM): 0.391 | viability ([5]; 10 µM): 0.354 | viability ([6]; 0.016 µM): 0.937 | viability ([6]; 0.08 µM): 1.02 | viability ([6]; 0.4 µM): 0.894 | viability ([6]; 2 µM): 0.815 | viability ([6]; 10 µM): 0.634 | viability ([7]; 0.016 µM): 0.932 | viability ([7]; 0.08 µM): 0.885 | viability ([7]; 0.4 µM): 0.631 | viability ([7]; 2 µM): 0.255 | viability ([7]; 10 µM): 0.235 | viability ([8]; 0.016 µM): 1.01 | viability ([8]; 0.08 µM): 1.03 | viability ([8]; 0.4 µM): 0.775 | viability ([8]; 2 µM): 0.501 | viability ([8]; 10 µM): 0.344 | viability ([9]; 0.016 µM): 0.847 | viability ([9]; 0.08 µM): 0.793 | viability ([9]; 0.4 µM): 0.475 | viability ([9]; 2 µM): 0.257 | viability ([9]; 10 µM): 0.205 | viability ([10]; 0.016 µM): 0.861 | viability ([10]; 0.08 µM): 0.614 | viability ([10]; 0.4 µM): 0.312 | viability ([10]; 2 µM): 0.191 | viability ([10]; 10 µM): 0.178 | viability ([11]; 0.016 µM): 1.06 | viability ([11]; 0.08 µM): 1.15 | viability ([11]; 0.4 µM): 0.891 | viability ([11]; 2 µM): 0.711 | viability ([11]; 10 µM): 0.687 | viability ([12]; 0.016 µM): 0.977 | viability ([12]; 0.08 µM): 0.911 | viability ([12]; 0.4 µM): 0.818 | viability ([12]; 2 µM): 0.758 | viability ([12]; 10 µM): 0.802 | viability ([13]; 0.016 µM): 0.983 | viability ([13]; 0.08 µM): 0.927 | viability ([13]; 0.4 µM): 0.77 | viability ([13]; 2 µM): 0.52 | viability ([13]; 10 µM): 0.405 | viability ([14]; 0.016 µM): 0.959 | viability ([14]; 0.08 µM): 0.963 | viability ([14]; 0.4 µM): 0.9 | viability ([14]; 2 µM): 0.76 | viability ([14]; 10 µM): 0.762 | viability ([15]; 0.016 µM): 0.981 | viability ([15]; 0.08 µM): 0.971 | viability ([15]; 0.4 µM): 0.955 | viability ([15]; 2 µM): 0.897 | viability ([15]; 10 µM): 0.874 | viability ([16]; 0.016 µM): 1.02 | viability ([16]; 0.08 µM): 1.01 | viability ([16]; 0.4 µM): 0.913 | viability ([16]; 2 µM): 0.866 | viability ([16]; 10 µM): 0.805 | viability ([17]; 0.016 µM): 0.972 | viability ([17]; 0.08 µM): 0.949 | viability ([17]; 0.4 µM): 0.689 | viability ([17]; 2 µM): 0.546 | viability ([17]; 10 µM): 0.477 | viability ([18]; 0.016 µM): 1.14 | viability ([18]; 0.08 µM): 1.14 | viability ([18]; 0.4 µM): 0.91 | viability ([18]; 2 µM): 0.654 | viability ([18]; 10 µM): 0.566 | viability ([19]; 0.016 µM): 0.856 | viability ([19]; 0.08 µM): 0.616 | viability ([19]; 0.4 µM): 0.266 | viability ([19]; 2 µM): 0.2 | viability ([19]; 10 µM): 0.184
